Experiment [1] deals with Epidermal growth factor receptor (Homo sapiens, UniProt P00533). Kind of experiment: EGFR kinase Enzymatic Activity Test 1. As to the method:
(§1) To assess the effect of compounds on the activity of wild-type and mutant EGFR kinases, kinase activity was tested by measuring ATP consumption in an enzymatic reaction using an ADP-Glo (Promega Corporation) kit. Samples to be tested were dissolved in DMSO and diluted in a gradient. In a microplate, an EGFR kinase, a reaction buffer (containing Tris-HCl with a pH of 7.5, MgCl2, DTT and BSA), a kinase substrate Poly(Glu4, Tyr1) and a sample (a total volume of 20 μL per well) were added per well, while a blank control (no enzyme and sample) and a negative control (no sample) were set up; incubated for 15 minutes at 23° C.; added with 5 μL of ATP, and reacted at 23° C. for 60 minutes; added with ADP-Glo Reagent, and continuously reacted for 40 minutes at room temperature to inactivate the redundant ATP; then, added with a Kinase Detection Reagent, and reacted at room temperature for 30 minutes, then the chemiluminescence intensity L of each well was measured. […] IC50 values were calculated according to the above calculation using 4Parameter Logistic Model in XLfit software.

Experiment [2] concerns the target Epidermal growth factor receptor [T790M,L858R] (Homo sapiens, UniProt P00533, L858R/T790M). Kind of experiment: EGFR kinase Enzymatic Activity Test 1. Here is the method: as §1

Chain of Epidermal growth factor receptor [T790M,L858R] (P00533 25-1210 T790M/L858R limits assumed): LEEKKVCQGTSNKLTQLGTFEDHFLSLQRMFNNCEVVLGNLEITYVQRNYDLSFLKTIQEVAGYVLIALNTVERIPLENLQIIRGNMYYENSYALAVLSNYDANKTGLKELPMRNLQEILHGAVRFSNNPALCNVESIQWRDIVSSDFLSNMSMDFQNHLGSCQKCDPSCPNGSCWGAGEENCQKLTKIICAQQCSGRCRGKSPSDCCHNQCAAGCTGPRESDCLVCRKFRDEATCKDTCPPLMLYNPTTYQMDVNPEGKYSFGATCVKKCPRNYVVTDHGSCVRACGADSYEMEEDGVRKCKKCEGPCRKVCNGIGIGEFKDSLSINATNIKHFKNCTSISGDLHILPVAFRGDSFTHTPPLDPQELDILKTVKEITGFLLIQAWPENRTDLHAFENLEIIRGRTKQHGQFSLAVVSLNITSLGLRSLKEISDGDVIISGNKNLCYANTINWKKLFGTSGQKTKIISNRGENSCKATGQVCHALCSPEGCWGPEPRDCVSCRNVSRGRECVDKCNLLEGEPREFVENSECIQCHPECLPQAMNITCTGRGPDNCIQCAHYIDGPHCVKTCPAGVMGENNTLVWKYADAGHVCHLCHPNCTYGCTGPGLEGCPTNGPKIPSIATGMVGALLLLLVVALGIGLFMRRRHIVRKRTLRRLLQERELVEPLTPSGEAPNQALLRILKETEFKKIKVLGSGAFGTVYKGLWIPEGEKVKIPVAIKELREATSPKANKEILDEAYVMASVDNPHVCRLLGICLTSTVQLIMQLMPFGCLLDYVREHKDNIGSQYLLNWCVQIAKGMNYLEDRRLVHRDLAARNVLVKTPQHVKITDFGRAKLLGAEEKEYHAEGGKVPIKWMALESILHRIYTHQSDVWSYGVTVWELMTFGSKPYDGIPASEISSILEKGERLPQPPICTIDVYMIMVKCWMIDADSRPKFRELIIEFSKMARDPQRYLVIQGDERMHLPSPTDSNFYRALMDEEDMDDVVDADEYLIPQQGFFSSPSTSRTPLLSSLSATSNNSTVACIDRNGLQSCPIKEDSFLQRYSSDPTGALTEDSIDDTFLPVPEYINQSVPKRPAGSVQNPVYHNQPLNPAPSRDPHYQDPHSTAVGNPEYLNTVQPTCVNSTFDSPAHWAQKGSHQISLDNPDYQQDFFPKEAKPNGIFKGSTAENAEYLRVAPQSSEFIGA
Chain of Epidermal growth factor receptor (P00533 whole entry): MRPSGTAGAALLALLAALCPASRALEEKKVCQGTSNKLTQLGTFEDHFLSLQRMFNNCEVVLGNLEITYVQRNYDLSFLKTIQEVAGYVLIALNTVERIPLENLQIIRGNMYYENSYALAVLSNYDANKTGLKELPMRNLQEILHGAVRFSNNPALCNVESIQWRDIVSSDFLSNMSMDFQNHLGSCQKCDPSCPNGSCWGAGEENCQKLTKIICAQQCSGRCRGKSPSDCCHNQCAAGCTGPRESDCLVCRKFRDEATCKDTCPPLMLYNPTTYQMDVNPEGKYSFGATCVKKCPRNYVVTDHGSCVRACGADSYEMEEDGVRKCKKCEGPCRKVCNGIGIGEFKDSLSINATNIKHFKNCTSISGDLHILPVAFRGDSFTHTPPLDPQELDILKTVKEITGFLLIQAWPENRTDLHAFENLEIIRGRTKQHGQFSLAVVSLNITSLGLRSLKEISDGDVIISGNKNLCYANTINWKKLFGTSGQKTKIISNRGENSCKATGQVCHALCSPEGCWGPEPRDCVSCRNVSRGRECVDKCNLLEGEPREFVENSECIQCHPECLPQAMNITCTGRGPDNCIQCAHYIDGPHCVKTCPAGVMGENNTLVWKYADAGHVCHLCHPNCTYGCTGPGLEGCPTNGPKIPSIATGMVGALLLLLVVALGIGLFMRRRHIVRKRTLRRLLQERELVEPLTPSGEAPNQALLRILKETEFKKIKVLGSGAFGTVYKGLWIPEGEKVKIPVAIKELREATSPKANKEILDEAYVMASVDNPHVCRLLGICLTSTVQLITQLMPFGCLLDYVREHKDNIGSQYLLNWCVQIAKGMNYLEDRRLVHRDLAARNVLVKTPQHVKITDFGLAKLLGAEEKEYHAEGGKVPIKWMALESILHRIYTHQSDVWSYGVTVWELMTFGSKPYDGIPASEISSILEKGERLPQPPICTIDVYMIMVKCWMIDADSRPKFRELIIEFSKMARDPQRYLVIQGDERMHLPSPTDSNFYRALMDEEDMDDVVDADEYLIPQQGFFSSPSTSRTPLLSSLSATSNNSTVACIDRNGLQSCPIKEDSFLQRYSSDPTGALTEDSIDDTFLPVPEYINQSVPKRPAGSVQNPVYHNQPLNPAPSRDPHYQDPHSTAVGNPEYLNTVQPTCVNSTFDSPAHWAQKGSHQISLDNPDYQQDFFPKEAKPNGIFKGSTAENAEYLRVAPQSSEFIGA

Turning to `COc1cc(N2CCC(N3CCN(C)CC3)CC2)c(C)cc1Nc1ncc(Br)c(Nc2ccc(C)cc2P(C)(C)=O)n1` [US20230322822, Compound 2], the IC50 in experiment [1] came to 0.169 µM; in experiment [2], 0.0248 µM.

These data come from BindingDB's records for patent US20230322822 (Chengdu Di''Ao Jiuhong Pharmaceutical Factory, 2023).
